Patent publication US20230183188A1, “ENPP1 MODULATORS AND USES THEREOF” (Vir Biotechnology, Inc., priority 2020, published 2023)

These compounds were tested against T1, recombinant protein containing the human ENPP1 enzymatic domain (Homo sapiens, UniProt P22413) (assay: ENPP1 Enzymatic Inhibition Assay (2′3′-cGAMP substrate, AMP-Glo luminescence)). Details: 1 nM ENPP1, 20 uM 2′3′-cGAMP substrate, 30 minutes at 37° C.
T1 construct: recombinant protein containing the human ENPP1 enzymatic domain; purchased R&D Systems 6136-EN-010
T1 sequence (P22413 191-591 limits assumed): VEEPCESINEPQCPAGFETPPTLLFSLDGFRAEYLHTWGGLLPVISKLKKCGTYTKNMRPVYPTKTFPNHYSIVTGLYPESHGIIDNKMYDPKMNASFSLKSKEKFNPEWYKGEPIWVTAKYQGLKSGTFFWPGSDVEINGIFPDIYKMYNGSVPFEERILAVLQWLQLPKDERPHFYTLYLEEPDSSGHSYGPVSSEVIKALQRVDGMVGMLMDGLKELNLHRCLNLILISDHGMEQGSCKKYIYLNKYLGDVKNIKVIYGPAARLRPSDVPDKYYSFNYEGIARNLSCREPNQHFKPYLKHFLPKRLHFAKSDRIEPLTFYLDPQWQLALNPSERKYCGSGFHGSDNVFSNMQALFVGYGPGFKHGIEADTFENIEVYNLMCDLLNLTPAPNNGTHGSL
Format: biochemical
Experimental: The inhibition of ENPP1's phosphodiesterase activity were tested in a purified enzymatic assay using 2′3′-cyclic GAMP as a substrate which allowed for the release of cleaved AMP to be monitored using a luminescent assay.
Putative inhibitors were diluted in assay buffer (50 mM Tris pH 8.0, 250 mM NaCl, 0.5 mM CaCl2, 1 uM ZnCl2, 1% DMSO) and pre-incubated for 15 minutes at 37° C. with recombinant protein containing the human ENPP1 enzymatic domain (R&D Systems cat. #6136-EN-010). The enzymatic reaction was initiated upon addition of the 2′3′-cGAMP substrate. The final reaction concentrations were 1 nM ENPP1 and 20 uM 2′3′-cGAMP substrate in a 25 uL volume. Inhibitor concentrations ranged from 10 uM to 0.2 nM. The reaction was incubated for 30 minutes at 37° C.
After reacting for 30 minutes, the amount of AMP generated from the cleavage of 2′3′-cGAMP was determined using the Promega AMP-Glo method according to the manufacturer's protocol. First, AMP-Glo reagent 1 was added and incubated with the reaction mix for 1 hour at room temperature. Second, AMP Detection solution was added and the mixture was incubated for an additional hour. The luminescence of the mixture was read on a Perkin Elmer Ensight plate reader.
The maximum and minimum levels of ENPP1 activity were established using no inhibitor and no enzyme controls, respectively. The activity observed using ENPP1 inhibitors was quantified as the percent of activity relative to these controls. IC50 values were calculated using GraphPad Prism by fitting a sigmoidal variable slope nonlinear regression model to the data.

| IC50 [µM] | SMILES |
| --- | --- |
| < 0.01 | COc1ccc2c(Oc3ccc(S(N)(=O)=NCC(C)O)cc3)ccnc2c1 (single isomer, unassigned) [Compound 10, N′-(2-hydroxypropyl)-4-((7-methoxyquinolin-4-yl)oxy)benzenesulfonimidamide] |
| < 0.01 | COc1ccc2c(Oc3ccc(S(N)(=O)=NCC4CC4)cc3)ccnc2c1 (stereo not shown) [Compound 1, N′-(cyclopropylmethyl)-4-((7-methoxyquinolin-4-yl)oxy)benzenesulfonimidamide] |
| 0.01 to 0.1 | COc1ccc2c(Oc3ccc(S(N)(=O)=NC[C@H]4CCCN4C(=O)OC(C)(C)C)cc3)ccnc2c1 (stereo partly drawn) [Compound 5, tert-butyl (2R)-2-(((amino(4-((7-methoxyquinolin-4-yl)oxy)phenyl)(oxo)-I^6-sulfaneylidene)amino)methyl) pyrrolidine-1-carboxylate] |
| 0.01 to 0.1 | COc1ccc2c(Oc3ccc(S(N)(=O)=NC[C@H]4CCCN4)cc3)ccnc2c1 (stereo partly drawn) [Compound 6, 4-((7-methoxyquinolin-4-yl)oxy)-N′-(((R)-pyrrolidin-2-yl)methyl)benzenesulfonimidamide] |
| 0.01 to 0.1 | COc1ccc2c(Oc3ccc(S(N)(=O)=NCC(=O)O)cc3)ccnc2c1 (stereo not shown) [Compound 7] |
| 0.01 to 0.1 | COc1ccc2c(Oc3ccc(S(N)(=O)=NCCO)cc3)ccnc2c1 (stereo not shown) [Compound 9, N-(2-hydroxyethyl)-4-((7-methoxyquinolin-4-yl)oxy)benzenesulfonimidamide] |
| < 0.01 | COc1ccc2c(Oc3ccc(S(N)(=O)=NCC(C)(C)O)cc3)ccnc2c1 (stereo not shown) [Compound 11, N′-(2-hydroxy-2-methylpropyl)-4-((7-methoxyquinolin-4-yl)oxy)benzenesulfonimidamide] |
| < 0.01 | COc1ccc2c(Oc3ccc(S(N)(=O)=NCc4nccs4)cc3)ccnc2c1 (stereo not shown) [Compound 17, 4-((7-methoxyquinolin-4-yl)oxy)-N′-(thiazol-2-ylmethyl)benzenesulfonimidamide] |
| 0.01 to 0.1 | COc1ccc2c(Oc3ccc(S(N)(=O)=NC4CC4)cc3)ccnc2c1 (stereo not shown) [Compound 21, N′-cyclopropyl-4-((7-methoxyquinolin-4-yl)oxy)benzenesulfonimidamide] |
| 0.01 to 0.1 | CCN=S(N)(=O)c1ccc(Oc2ccnc3cc(OC)ccc23)cc1 (stereo not shown) [Compound 22, N′-ethyl-4-((7-methoxyquinolin-4-yl)oxy)benzenesulfonimidamide] |
| 0.01 to 0.1 | COc1ccc2c(Oc3ccc(S(=N)(N)=O)cc3)ccnc2c1 (stereo not shown) [Compound 30, 4-((7-methoxyquinolin-4-yl)oxy)benzenesulfonimidamide] |

The next lines start with the compound.

| SMILES | IC50 [µM] |
| --- | --- |
| COc1ccc2c(Oc3ccc(S(=N)(=O)NC[C@@H](O)CO)cc3)ccnc2c1 (single isomer, unassigned) [Compound 45] | < 0.01 |
| COc1ccc2c(Oc3ccc(S(=N)(=O)NC[C@H](O)CO)cc3)ccnc2c1 (single isomer, unassigned) [Compound 46] | < 0.01 |
| CN=S(N)(=O)c1ccc(Nc2ncnc3cc(OC)ccc23)cc1 (stereo not shown) [Compound 2, 4-((7-methoxyquinazolin-4-yl)amino)-N-methylbenzenesulfonimidamide] | < 0.01 |
| CN=S(N)(=O)c1ccc(CNc2ccnc3cc(OC)ccc23)cc1 (stereo not shown) [Compound 3, 4-(((7-methoxyquinolin-4-yl)amino)methyl)-N-methylbenzenesulfonimidamide] | > 0.1 |
| CCS(=N)(=O)c1ccc(Oc2ccnc3cc(OC)ccc23)cc1 (stereo not shown) [Compound 4, ethyl(imino)(4-((7-methoxyquinolin-4-yl)oxy)phenyl)-λ^6-sulfanone] | < 0.01 |
| COc1ccc2c(Oc3ccc(S4(=O)=NC(=O)CN4)cc3)ccnc2c1 (stereo not shown) [Compound 8, 1-(4-((7-methoxyquinolin-4-yl)oxy)phenyl)-4,5-dihydro-3H-1λ^6,2,5-thiadiazol-3-one 1-oxide] | > 0.1 |
| COc1ccc2c(Oc3ccc(S(N)(=O)=NCCOc4ccccn4)cc3)ccnc2c1 (stereo not shown) [Compound 12, 4-((7-methoxyquinolin-4-yl)oxy)-N′-(2-(pyridin-2-yloxy)ethyl)benzenesulfonimidamide] | < 0.01 |
| COc1ccc2c(Oc3ccc(S(N)(=O)=NCCOc4cccnc4)cc3)ccnc2c1 (stereo not shown) [Compound 13, 4-((7-methoxyquinolin-4-yl)oxy)-N′-(2-(pyridin-3-yloxy)ethyl)benzenesulfonimidamide] | < 0.01 |
| COc1ccc2c(Oc3ccc(S(N)(=O)=NCCOc4ccncc4)cc3)ccnc2c1 (stereo not shown) [Compound 14, 4-((7-methoxyquinolin-4-yl)oxy)-N′-(2-(pyridin-4-yloxy)ethyl)benzenesulfonimidamide] | < 0.01 |
| COc1ccc2c(Oc3ccc(S(N)(=O)=NCc4ncco4)cc3)ccnc2c1 (stereo not shown) [Compound 15, 4-((7-methoxyquinolin-4-yl)oxy)-N′-(oxazol-2-ylmethyl)benzenesulfonimidamide] | < 0.01 |
| COc1ccc2c(Oc3ccc(S(N)(=O)=NCc4nccn4C)cc3)ccnc2c1 (stereo not shown) [Compound 16, 4-((7-methoxyquinolin-4-yl)oxy)-N′-((1-methyl-1H-imidazol-2-yl)methyl)benzenesulfonimidamide] | < 0.01 |
| COc1ccc2c(Oc3ccc(S(=N)(=O)N4CCOCC4)cc3)ccnc2c1 (stereo not shown) [Compound 18, 4-(4-((7-methoxyquinolin-4-yl)oxy)phenylsulfonimidoyl)morpholine] | > 0.1 |
| COc1ccc2c(Oc3ccc(S(N)(=O)=NCCc4ccccc4)cc3)ccnc2c1 (stereo not shown) [Compound 19, 4-((7-methoxyquinolin-4-yl)oxy)-N′-phenethylbenzenesulfonimidamide] | 0.01 to 0.1 |
| COc1ccc2c(Oc3ccc(S(N)(=O)=Nc4ccccc4)cc3)ccnc2c1 (stereo not shown) [Compound 20, 4-((7-methoxyquinolin-4-yl)oxy)-N′-phenylbenzenesulfonimidamide] | 0.01 to 0.1 |
| CCN(CC)S(=N)(=O)c1ccc(Oc2ccnc3cc(OC)ccc23)cc1 (stereo not shown) [Compound 23, N,N-diethyl-4-((7-methoxyquinolin-4-yl)oxy)benzenesulfonimidamide] | > 0.1 |
| COc1ccc2c(Oc3ccc(S(=N)(=O)N4CCCC4)cc3)ccnc2c1 (stereo not shown) [Compound 24, 7-methoxy-4-(4-(pyrrolidine-1-sulfonimidoyl)phenoxy)quinoline] | > 0.1 |
| COc1ccc2c(Oc3ccc(S(N)(=O)=NCc4ccccc4)cc3)ccnc2c1 (stereo not shown) [Compound 25, N′-benzyl-4-((7-methoxyquinolin-4-yl)oxy)benzenesulfonimidamide] | < 0.01 |
| COc1ccc2c(Oc3ccc(S(N)(=O)=NCc4ccccn4)cc3)ccnc2c1 (stereo not shown) [Compound 26, 4-((7-methoxyquinolin-4-yl)oxy)-N′-(pyridin-2-ylmethyl)benzenesulfonimidamide] | 0.01 to 0.1 |
| COc1ccc2c(Oc3ccc(S(N)(=O)=NCc4cccnc4)cc3)ccnc2c1 (stereo not shown) [Compound 27, 4-((7-methoxyquinolin-4-yl)oxy)-N′-(pyridin-3-ylmethyl)benzenesulfonimidamide] | 0.01 to 0.1 |
| COc1ccc2c(Oc3ccc(S(N)(=O)=NCc4ccncc4)cc3)ccnc2c1 (stereo not shown) [Compound 28, 4-((7-methoxyquinolin-4-yl)oxy)-N′-(pyridin-4-ylmethyl)benzenesulfon imidamide] | 0.01 to 0.1 |
| COc1ccc2c(Oc3ccc(S(=N)(=O)N4CCN(C)CC4)cc3)ccnc2c1 (stereo not shown) [Compound 29, 7-methoxy-4-(4-(4-methylpiperazine-1-sulfonimidoyl)phenoxy)quinoline] | 0.01 to 0.1 |
| CNS(=N)(=O)c1ccc(Oc2ccnc3cc(OC)ccc23)cc1 (stereo not shown) [Compound 31, 4-((7-methoxyquinolin-4-yl)oxy)-N′-methylbenzenesulfonimidamide] | 0.01 to 0.1 |
| COc1ccc2c(Oc3ccc(S(=N)(=O)N(C)C)cc3)ccnc2c1 (stereo not shown) [Compound 32, 4-((7-methoxyquinolin-4-yl)oxy)-N, N-dimethylbenzenesulfonimidamide] | > 0.1 |
| COc1ccc2c(Oc3ccc(S(N)(=O)=NC4(c5ccccn5)CC4)cc3)ccnc2c1 (stereo not shown) [Compound 33, 4-((7-methoxyquinolin-4-yl)oxy)-N′-(1-(pyridin-2-yl)cyclopropyl)benzenesulfonimidamide] | < 0.01 |
| COc1ccc2c(Oc3ccc(S(N)(=O)=NCCOc4ccccc4)cc3)ccnc2c1 (stereo not shown) [Compound 34, 4-((7-methoxyquinolin-4-yl)oxy)-N′-(2-phenoxyethyl)benzenesulfonimidamide] | 0.01 to 0.1 |
| COc1ccc2c(Oc3ccc(S(N)(=O)=NCc4ccc(-c5ccncc5)cc4)cc3)ccnc2c1 (stereo not shown) [Compound 35, 4-((7-methoxyquinolin-4-yl)oxy)-N′-(4-(pyridin-4-yl)benzyl)benzenesulfonimidamide] | < 0.01 |
